Experiments:
[1] = test system: TPA-induced edema and hyperproliferation in mouse skin; experiment: Topical application, TPA-induced edema and hyperproliferation in mouse skin; type: in vivo, Hairless mice (hr/hr; male); settings: with 0.01 wt% TPA
Method: Hairless mice (hr/hr; male) were treated on their backs with 10 µl of a 0.01 wt% solution of 12-O-tetradecanoylphorbol-13-acetate (TPA) in a 80/20 mixture of acetone/water, further containing the test substances cyclosporin A, sphingosine or tiflucarbine. Per mouse, 4 application sites were used: one application site was treated with only TPA (control) and one with only vehicle (blanco), two with experimental formulations, according to a roulation scheme. 6 mice were treated per experiment. Skin fold thickness was determined before treatment (t=0) and 6 and 24 h after treatment, as a measure of edema. After 72 h the epidermis (15 mm punch biopsy) was separated with 2 M KBr and dissolved in 0.1 M NaOH for determination of the amount of protein, as a measure of hyperproliferation. In one experiment tiflucarbine was compared with cyclosporin A, in a second experiment with sphingosine.

[2] = test system: HaCaT cells; experiment: Proliferation of HaCaT cells (incorporation of [3H]-thymidine and [14C]-amino acids, total protein content of attached cells); type: cell-based; settings: Homo sapiens, all parameters measured ([3H]-thymidine, [14C]-amino acids, total protein content), 48 h incubation with compound, read-out: IC₅₀ values, inhibition of proliferation
From the text: HaCaT cells are spontaneously immortalized aneuploid human keratinocytes prepared according to J. Cell. Biol. (1988), 106: 761-771. They can be substituted, however, by SVK₁₄ cells [Taylor-Papadimitriou et al. (1982), J. Cell Differentiat. 11: 169-180] or freshly isolated human keratinocytes [Rheinwald and Green (1975), Cell 6: 331-344].
The HaCaT cells (or the other cells) were routinely grown in Dulbecco's modified essential medium (DMEM) supplemented with 1% antibiotic-antimycotic solution, 4 mM L-glutamine and 10% fetal calf serum in culture flasks (T 175; Falcon Labware, Oxuard, CA, USA). Proliferation tests were carried out with passages 90-95 (for HaCaT-cells) and passages 3-6 (for NHEK's) in 24 well plates (Greiner, Solingen, FRG) as described below. All incubations were performed at 37°C in a humidified atmosphere with 10% CO₂. […]
Proliferation of HaCaT cells was assayed by three different parameters: incorporation of [³H]-thymidine, incorporation of [¹⁴C]-amino acids and the increase of protein content of attached cells. […] Thereafter, the filters were treated with 0.5 ml PROTOSOL®-solution (NEN, Bad Homburg, FRG) at 60°C for 1 h and radioactivity was assessed by liquid scintillation counting. […]
For determination of total protein content, cells were washed twice with methanol. […] Concentration of protein was determined spectrophotometrically using bovine serum albumin as a standard. […]

[3] = test system: Normal human keratinocytes; experiment: Cornified envelope formation (keratinocyte differentiation); type: cell-based; settings: 4 h plus 48 h exposure, increasing concentrations
Method: Normal human keratinocytes were grown to confluence at low calcium concentration in the presence of 5% FCS, 1 µM isoproterenol and 10 ng EGF per ml. They were first exposed for 4 h to increasing concentrations of test compounds and subsequently reincubated for 48 h in medium containing normal calcium concentration and the same additives, test compounds and [³H]-leucine (1 µCi/ml). Thereafter, both spontaneous and ionophore-induced cornified envelope (CE) formation was determined [King et al. (1986) Exp. Cell. Res., 167: 252].

[4] = test system: PMHL; experiment: Nonspecific cytotoxicity, trypane blue exclusion test; type: cell-based, human
Method: Nonspecific cytotoxicity of the test compounds on PMHL was assessed by […] blue exclusion test.

[5] = test system: TPA-induced ear edema in mice; experiment: Intraperitoneal administration, TPA-induced ear edema in mice; type: in vivo; settings: intraperitoneally, 30 mg/kg, 3 h after challenge
Method: Mice were injected intraperitoneally with 30, 10 or 3.3 mg/kg body weight of the test substances, sphingosine in carboxymethylcellulose (0.5%) and tiflucarbine in physiologic Saline, 10 ml/kg body weight. After 60 minutes the mire were challenged on the left ear with a 0.01 wt% solution of 12-O-tetradecanoylphorbol-13-acetate (TPA) in a 80/20 mixture of acetone/water. At 0, 3, 6 and 24 h after challenge, ear thickness was determined.

## CCN1CCc2[nH]c3cc(F)c4scc(C)c4c3c2C1 [Tiflucarbine, 1-methyl-9-ethyl-4-fluoro-7,8,9,10-tetra:hydro-thieno-[3,2-e]-pyrido-[4,3-b]-indole lactate]
[1]; 6 and 24 h after treatment
  edema (skin fold thickness): reduces edema at 0.5, 1 and 2.5%
[1]; after 72 h
  hyperproliferation (amount of epidermal protein): reduces hyperproliferation only at 1 and 2.5%
[2]
  IC50: 10 to 17 µM
[3]
  spontaneous CE formation: no effect
[4]
  Trypane blue: 300 µM
[5]
  ear edema (ear thickness): reduced ear edema

— patent EP0499337A1, “Use of tetra:hydro-thieno-pyrido-indole derivatives for the treatment of skin disorders” (YAMANOUCHI EUROPE B.V., priority 1991, dated 1992)
